Data: patent US20250263404A1, “AMINOPYRIDINES AS ACTIVATORS OF PI3 KINASE” (UCL Business Ltd, priority 2021, published 2025)

Biological target: PI3Kα (Homo sapiens, UniProt P42336)
Assay: pAKT S473 ELISA in A549 cells (PI3Kα activation)
Type: cell-based
Parameters: endogenous in cells; host or cells: A549
Conditions: for EC50: A549 cells, 15 min treatment, pAKT S473 ELISA, normalised to Emax of 1 μM insulin, read-out: Av EC50; for Emax at 10 µM: A549, 0.25 h, read-out: <50% response at 10 μM
Experimental: EC50 values were determined by quantifying phosphorylation on S473 residues of Akt in A549 human adenocarcinoma cells by ELISA (enzyme linked immunoadsorbent assay, R&D Systems, DYC887BE). A549 cells were seeded into 96-well plates (50,000 cells/well) in DMEM supplemented with 10% foetal bovine serum and 1% penicillin-streptomyocin. Following 24 h in culture cells were starved for 24 h in serum-free DMEM before 15 minute treatment with a concentration response curve of compounds. Experimental compounds were diluted in DMSO into […] 1:3 concentration response curves in polypropylene V-bottom plates (SLS MIC9050). Concentration response curves were diluted to a 3× stock in serum-free DMEM. Standard 8-point concentration response curves were performed at 50, 16.7, 5.6, 1.9, 0.6, 0.2, 0.07, 0.02 μM and serum-free DMEM containing 0.5% DMSO was used as a negative control. […] A549 cells were seeded at 50,000 cells per well in 96-well plates in DMEM (10% FBS+1% P/S). The next day cells were washed once with PBS before addition of serum-free DMEM for 24 h. On the day of treatment cells, were incubated in fresh serum-free DMEM prior to treatment. Compounds solubilised to 10 mM in DMSO were diluted 1:3 in an 8-point concentration response curve in DMSO. Concentration response curves were diluted in serum-free DMEM by transfer into intermediate plates using a BRAVO liquid handler (Agilent). Intermediate plates were then used to treat cell plates using the BRAVO liquid handler. Compound concentration response curves had atop concentration of 50 μM and a final well concentration of 0.5% DMSO. Cell plates were treated for 15 min at 37° C., 5% CO2 before being washed with ice-cold PBS and lysed in lysis buffer 6 (R&D Systems #895561) and freezing at −80° C. Levels of pAKT-S473 were determined using the phospho-AKT (S473) pan-specific Duoset IC ELISA (R&D Systems #DYC887BE) in 96-well white high-binding plates (Corning #3922) according to manufacturer's instructions. Endpoint luminescence was measured using a Sense (Hidex) platereader. […] Data were transformed and EC50 data were determined by variable slope (4 parameters) non-linear regression using Prism 7 (Graphpad).

Chain of PI3Kα (P42336 whole entry): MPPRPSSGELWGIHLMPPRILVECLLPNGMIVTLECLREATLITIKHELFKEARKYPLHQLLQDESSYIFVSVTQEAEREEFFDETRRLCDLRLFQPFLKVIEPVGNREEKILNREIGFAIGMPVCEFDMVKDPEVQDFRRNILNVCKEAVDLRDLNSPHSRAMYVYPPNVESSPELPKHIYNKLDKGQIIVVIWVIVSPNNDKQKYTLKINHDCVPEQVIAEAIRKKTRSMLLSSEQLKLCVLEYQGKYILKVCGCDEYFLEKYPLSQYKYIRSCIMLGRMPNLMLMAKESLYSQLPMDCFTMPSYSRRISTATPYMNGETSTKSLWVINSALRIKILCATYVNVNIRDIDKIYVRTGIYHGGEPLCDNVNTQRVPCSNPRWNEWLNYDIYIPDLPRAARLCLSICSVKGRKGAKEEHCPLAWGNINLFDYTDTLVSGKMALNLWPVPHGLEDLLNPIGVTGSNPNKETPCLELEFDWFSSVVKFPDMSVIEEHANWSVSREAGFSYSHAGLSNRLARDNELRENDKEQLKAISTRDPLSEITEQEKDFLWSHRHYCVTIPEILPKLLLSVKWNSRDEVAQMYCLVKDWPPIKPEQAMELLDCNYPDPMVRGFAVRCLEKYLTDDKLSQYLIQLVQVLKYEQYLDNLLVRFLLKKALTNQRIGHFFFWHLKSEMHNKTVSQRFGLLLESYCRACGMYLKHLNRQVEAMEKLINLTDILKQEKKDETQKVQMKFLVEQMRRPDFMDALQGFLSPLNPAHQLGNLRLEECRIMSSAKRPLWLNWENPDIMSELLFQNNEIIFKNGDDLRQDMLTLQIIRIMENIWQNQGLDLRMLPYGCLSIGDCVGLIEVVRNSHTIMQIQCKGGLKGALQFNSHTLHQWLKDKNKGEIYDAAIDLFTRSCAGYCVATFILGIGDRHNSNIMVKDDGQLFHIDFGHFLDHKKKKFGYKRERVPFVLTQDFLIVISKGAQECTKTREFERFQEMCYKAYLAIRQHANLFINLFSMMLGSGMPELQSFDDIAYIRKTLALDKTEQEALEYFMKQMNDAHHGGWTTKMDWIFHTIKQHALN
Chain of PI3Kα (P27986 whole entry partner): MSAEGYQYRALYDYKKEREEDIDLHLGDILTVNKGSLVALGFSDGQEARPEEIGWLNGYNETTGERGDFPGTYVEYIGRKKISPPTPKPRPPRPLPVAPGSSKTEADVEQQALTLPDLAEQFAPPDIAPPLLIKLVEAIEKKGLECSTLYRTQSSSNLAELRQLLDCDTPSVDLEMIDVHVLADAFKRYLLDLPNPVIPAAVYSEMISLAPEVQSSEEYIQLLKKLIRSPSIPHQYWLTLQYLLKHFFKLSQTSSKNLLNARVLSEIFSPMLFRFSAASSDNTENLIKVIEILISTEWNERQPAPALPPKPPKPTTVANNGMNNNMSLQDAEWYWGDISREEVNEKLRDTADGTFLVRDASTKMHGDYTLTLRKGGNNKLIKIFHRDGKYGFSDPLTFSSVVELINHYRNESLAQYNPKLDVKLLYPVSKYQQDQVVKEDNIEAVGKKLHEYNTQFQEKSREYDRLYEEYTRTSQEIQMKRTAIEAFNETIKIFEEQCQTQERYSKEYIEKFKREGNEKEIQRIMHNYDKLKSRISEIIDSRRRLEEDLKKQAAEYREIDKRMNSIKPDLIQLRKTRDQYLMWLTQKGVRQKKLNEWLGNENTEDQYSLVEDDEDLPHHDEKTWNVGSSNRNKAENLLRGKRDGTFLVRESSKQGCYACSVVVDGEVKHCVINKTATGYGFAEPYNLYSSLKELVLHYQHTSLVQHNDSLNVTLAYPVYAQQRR

Row | EC50 [nM] | Emax at 10 µM [%] | SMILES
1 | ≥ 50000 |  | COc1cc(Nc2cc(Nc3ccccc3)ccn2)cc(OC)c1OC [1 (1902)]
2 | ≥ 50000 |  | COc1cc(Nc2cc(Nc3ccn(C)n3)ccn2)cc(OC)c1OC [2 (1903)]
3 | 9710 |  | COc1cc(N2CCN(C)CC2)ccc1Nc1cc(Nc2ccn(C)n2)ccn1 [3 (1904)]
4 | 2080 | < 50 | COc1cc(Nc2cc(Nc3cnn(C)c3)ccn2)cc(OC)c1OC [4 (1905)]
5 | 440 | < 50 | COc1cc(Nc2cc(Nc3ccc4c(c3)CCN4C(C)=O)ccn2)cc(OC)c1OC [5 (1906)]
6 | 840 | < 50 | COc1cc(Nc2cc(Nc3ccc4c(c3)N(C(C)=O)CC4)ccn2)cc(OC)c1OC [6 (1907)]
7 | 540 | < 50 | COc1cc(N2CCOCC2)ccc1Nc1cc(Nc2cccc3c2N(C(C)=O)CC3)ccn1 [7 (1912)]
8 | > 50000 | < 50 | CNC(=O)c1ccccc1Nc1ccnc(Nc2ccc(N3CCN(C)CC3)cc2OC)c1 [8 (1934)]
9 | 1580 | < 50 | CNC(=O)c1ccccc1Nc1ccnc(Nc2ccc(N3CCOCC3)cc2OC)c1 [9 (1935)]
10 | 5360 | < 50 | COc1cc(N2CCN(C)CC2)ccc1Nc1cc(Nc2cccc3c2N(C(C)=O)CC3)cc(C)n1 [10 (1936)]
11 | 2640 |  | CC(=O)N1CCc2cccc(Nc3ccnc(Nc4ccc(N5CCN(C)CC5)cc4)c3)c21 [11 (1937)]
12 | 1530 |  | CCN1CCN(c2ccc(Nc3cc(Nc4cccc5c4N(C(C)=O)CC5)ccn3)cc2)CC1 [12 (1938)]
13 | 4380 |  | COc1cc(N2CCCCC2)ccc1Nc1cc(Nc2cccc3c2N(C(C)=O)CC3)ccn1 [13 (1941)]
14 | 2270 |  | COc1cc(N2CCN(C(C)C)CC2)ccc1Nc1cc(Nc2cccc3c2N(C(C)=O)CC3)ccn1 [14 (1942)]
15 | 2390 |  | COc1cc(N2CCN(C)CC2)ccc1Nc1cc(Nc2cccc3c2N(C(=O)C(C)C)CC3)ccn1 [15 (1943)]
16 | 5530 | < 50 | COc1cc(N2CCN(C)CC2)ccc1Nc1nccc(Nc2cccc3c2N(C(C)=O)CC3)c1C [16 (1944)]
17 | 4780 |  | COCC(=O)N1CCc2cccc(Nc3ccnc(Nc4ccc(N5CCN(C)CC5)cc4OC)c3)c21 [17 (1950)]
18 | 3080 |  | COc1cc(N2CCN(C)CC2)ccc1Nc1nccc(Nc2cccc3c2N(C(C)=O)CC3)c1F [18 (1951)]
19 | 1010 |  | COc1cc(N2CCN(C)CC2)ccc1Nc1cc(Nc2cc(C)cc3c2N(C(C)=O)CC3)ccn1 [19 (1958)]
20 | 2280 |  | CCC(=O)N1CCc2cccc(Nc3ccnc(Nc4ccc(N5CCN(C)CC5)cc4OC)c3)c21 [20 (1959)]

Row | EC50 [nM] | Emax at 10 µM [%] | SMILES
21 | 6680 |  | CCOCC(=O)N1CCc2cccc(Nc3ccnc(Nc4ccc(N5CCN(C)CC5)cc4OC)c3)c21 [21 (1961)]
22 | 7850 |  | CC(=O)N1CCc2cccc(Nc3ccnc(Nc4cccc(N5CCN(C)CC5)c4)c3)c21 [22 (1968)]
23 | 4530 |  | COc1cc(N2CCN(C)CC2)ccc1Nc1cc(Nc2ccccc2)ccn1 [23 (1971)]
24 | 1250 |  | COc1cc(N2CCN(C)CC2)ccc1Nc1cc(Nc2ccc3c(c2)CCN3C(C)=O)ccn1 [24 (1989)]
25 | > 50000 |  | CC(=O)N1CCc2cccc(Nc3ccnc(Nc4ccc(N5CCN(C)CC5)cc4C(F)(F)F)c3)c21 [25 (1992)]
26 | > 50000 |  | COc1cc(N2CCN(Cc3ccc(C)cc3)CC2)ccc1Nc1cc(Nc2cccc3c2N(C(C)=O)CC3)ccn1 [26 (1993)]
27 | 1300 |  | COCCN1CCN(c2ccc(Nc3cc(Nc4cccc5c4N(C(C)=O)CC5)ccn3)c(OC)c2)CC1 [27 (1994)]
28 | 1410 | < 50 | COc1cc(N2CCN(C)CC2)ccc1Nc1cc(Nc2cc(-c3ccccc3)nn2C)ccn1 [28 (1995)]
29 | 890 |  | COc1cc(N2CCN(C)CC2)ccc1Nc1cc(Nc2cc(C(C)(C)C)nn2C)ccn1 [29 (1998)]
30 | 4890 |  | COc1cc(N2CCN(C)CC2)ccc1Nc1cc(Nc2cc(C(C)C)nn2C)ccn1 [30 (2000)]
31 | 1550 |  | CCOc1cc(N2CCN(C)CC2)ccc1Nc1cc(Nc2cccc3c2N(C(C)=O)CC3)ccn1 [31 (2007)]
32 | 1460 |  | CC(=O)N1CCc2cccc(Nc3ccnc(Nc4ccc(N5CCN(C)CC5)cc4OC(C)C)c3)c21 [32 (2008)]
33 | 5230 |  | COCCOc1cc(N2CCN(C)CC2)ccc1Nc1cc(Nc2cccc3c2N(C(C)=O)CC3)ccn1 [33 (2009)]
34 | > 50000 |  | CC(=O)N1CCc2cccc(Nc3ccnc(Nc4cccc(Oc5ccccc5)c4)c3)c21 [34 (2010)]
35 | 4970 |  | CC(=O)N1CCc2cccc(Nc3ccnc(Nc4ccc(C(N)=O)cc4)c3)c21 [35 (2011)]
36 | 8810 |  | CC(=O)N1CCc2cccc(Nc3ccnc(Nc4ccc(Oc5ccccc5)cc4)c3)c21 [36 (2013)]
37 | > 50000 |  | CC(=O)N1CCc2cccc(Nc3ccnc(Nc4ccc(OCc5ccccc5)cc4)c3)c21 [37 (2014)]
38 | 1320 |  | CC(=O)N1CCc2cccc(Nc3ccnc(Nc4ccc(N5CCOCC5)cc4)c3)c21 [38 (2015)]
39 | > 50000 |  | CC(=O)N1CCc2cccc(Nc3ccnc(Nc4ccccc4)c3)c21 [39 (2016)]
40 | 7400 | < 50 | CC(=O)N1CCc2cccc(Nc3ccnc(Nc4ccc(C(C)(C)C)cc4)c3)c21 [40 (2017)]

Row | EC50 [nM] | Emax at 10 µM [%] | SMILES
41 | 1740 | < 50 | CC(=O)N1CCc2cccc(Nc3ccnc(Nc4ccc(C#N)cc4)c3)c21 [41 (2018)]
42 | 1370 |  | CNC(=O)c1ccc(Nc2cc(Nc3cccc4c3N(C(C)=O)CC4)ccn2)cc1 [42 (2019)]
43 | > 50000 |  | CC(=O)N1CCc2cccc(Nc3ccnc(Nc4ccc5ccccc5n4)c3)c21 [43 (2020)]
44 | > 50000 |  | CC(=O)N1CCc2cccc(Nc3ccnc(Nc4cc5ccccc5cn4)c3)c21 [44 (2021)]
45 | > 50000 |  | CC(=O)N1CCc2cccc(Nc3ccnc(Nc4cc(-c5ccccc5)nn4C)c3)c21 [46 (2023)]
46 | 1760 | < 50 | CNC(=O)c1cccc(Nc2cc(Nc3cccc4c3N(C(C)=O)CC4)ccn2)c1 [47 (2026)]
47 | 1480 | < 50 | CC(=O)N1CCc2cccc(Nc3ccnc(Nc4nn(C)c5ccccc45)c3)c21 [48 (2027)]
48 | 440 | < 50 | CC(=O)N1CCc2cccc(Nc3ccnc(Nc4ccc5ncccc5c4)c3)c21 [49 (2028)]
49 | 1360 |  | COc1cc(N2CCN(C)CC2)ccc1Nc1cc(Nc2ccnc3ccccc23)ccn1 [50 (2029)]
50 | 310 |  | COc1cc(N2CCN(C)CC2)ccc1Nc1cc(Nc2ccc3scnc3c2)ccn1 [51 (2031)]
51 | 3810 |  | COc1cc(N2CCN(C)CC2)ccc1Nc1cc(Nc2ccc(S(C)(=O)=O)cc2)ccn1 [52 (2038)]
52 | 7850 |  | COc1cc(N2CCN(C)CC2)ccc1Nc1cc(Nc2ccncn2)ccn1 [53 (2039)]
53 | 1220 |  | COc1cc(N2CCN(C)CC2)ccc1Nc1cc(Nc2cccc(S(C)(=O)=O)c2)ccn1 [54 (2043)]
54 | > 6120 |  | COc1cc(N2CCN(C)CC2)ccc1Nc1cc(Nc2ccncc2)ccn1 [55 (2045)]
55 | 1280 |  | COc1ccc(Nc2ccnc(Nc3ccc(N4CCN(C)CC4)cc3OC)c2)cc1NC(C)=O [56 (2046)]
56 | > 50000 |  | COc1cc(N2CCN(C)CC2)ccc1Nc1cc(Nc2ccc3ncccc3c2)ccn1 [57 (2047)]
57 | 1350 |  | CNC(=O)c1cccc(Nc2ccnc(Nc3ccc(N4CCN(C)CC4)cc3OC)c2)c1 [58 (2049)]
58 | 550 | < 50 | COc1cc(N2CCN(C)CC2)ccc1Nc1cc(Nc2cccc(-c3ccccn3)c2)ccn1 [59 (2052)]
